According to patent US6495147B1 (LVMH Recherche, priority 1997, dated 2002):

Experiments:
[1] = tested on: normal human keratinocytes; test: Stimulation of synthesis and secretion of PG and GAG by keratinocytes (radioactive tracer incorporation); assay type: cell-based; conditions: for GAG secreted / A, stimulating activity on the secretion of GAG: 48 h; for A, stimulating activity on the secretion of GAG: versus untreated control
Experimental: These tracers enable the amount of PG and GAG to be measured.
There are two families of GAG which differ in their sugar chains. One is based on a sequence of glucosamines and the other is based on a sequence of galactosamines. It is for this reason that two different radioactive tracers were used, namely ^3H-D-glucosamine and ^14C-D-galactosamine, which become incorporated in the osidic chains of PG and GAG during their synthesis.
The cells are incubated for 24 h at 37° C. in a humidity-saturated atmosphere containing 5% of CO2.
(§1) The cultures are then incubated for 48 h at 37° C. in a humidity-saturated atmosphere containing 5% of CO2.
The enzyme is then inactivated by heating for 10 min in boiling water, after which the mixture is brought back to room temperature. A selective precipitation of the GAG is effected with 40 μl of cetylpyridinium chloride (CPC at 100 mg/ml, Sigma) in the presence of 40 μl of a mixture of hyaluronic acid (Fluka), dermatan sulfate (Fluka) and chondroitin sulfate (Sigma), all at 2 mg/ml (amounting to the addition of a solution containing 6 mg/ml of non-radioactive GAG). These non-radioactive GAG are added to trigger the precipitation and entrain the radioactive GAG (which on their own would not be in a sufficient amount to precipitate) into the precipitate. The precipitate obtained is washed twice with 400 μl of a solution of CPC at 10 mg/ml, and then solubilized in 500 μl of methanol (Merck). The radioactivity is finally measured by liquid scintillation with 10 ml of scintillating liquid (Packard).
It should be noted when processing the results that the GAG whose synthesis has been measured have two origins. They originate both from the synthesized and secreted GAG and from the synthesized and secreted PG (which have undergone hydrolysis with pronase for the purposes of the assay).
In order to reduce the radioactivity to a unit amount of cellular material, the cellular proteins are assayed. After removal of the culture medium and two rinses with a phosphate buffer of pH 7.2 (PBS, Gibco), the cellular tapetum in the culture wells is dissolved in 30 μl of 0.1 M NaOH at 37° C. and the plates are agitated for 30 min at 37° C. 200 μl of bicinchoninic acid/Cu^++ sulfate reagent (Sigma kit) are added to each well. The plates are incubated for 30 min at 37° C. in the dark and the proteins which it is desired to assay reduce the cupric ions (Cu^++) of the copper sulfate to cuprous ions (Cu^+). The latter and the bicinchoninic acid form chromogenic complexes absorbing at 570 nm, which is the wavelength used to measure the optical density. In parallel, a calibration series is prepared under the same experimental conditions with 0 to 100 μg/well of bovine serum albumin (BSA, Sigma) in order to translate the optical densities (OD) obtained with the cellular proteins into Stg of BSA equivalent per well.
The amounts of GAG measured will be reduced to a unit amount of protein (expressed in jig of BSA equivalent).
The stimulating activity “A” on the secretion of GAG is calculated in the form of a percentage according to the following formula: [formula]

[2] = tested on: normal human keratinocytes; test: Cytotoxicity / cell viability in keratinocyte cultures; assay type: cell-based; conditions: concentrations of 1.5 and 10 mM
Experimental: as §1

[3] = D-xylose 1 mM, tracer 3H-D-glucosamine
[4] = D-xylose 1 mM, tracer 14C-D-galactosamine
[5] = D-xylose 5 mM, tracer 3H-D-glucosamine
[6] = D-xylose 10 mM, tracer 3H-D-glucosamine
[7] = D-xylose 10 mM, tracer 14C-D-galactosamine

Structure (SMILES): O=C[C@H](O)[C@@H](O)[C@H](O)CO [D-xylose]
- GAG secreted [1, 3]: 2148 ± 160 dpm/μg protein
- A, stimulating activity on the secretion of GAG [1, 3]: 55%
- GAG secreted [1, 4]: 136 ± 12 dpm/μg protein
- A, stimulating activity on the secretion of GAG [1, 4]: 34%
- GAG secreted [1, 5]: 2661 ± 202 dpm/μg protein
- A, stimulating activity on the secretion of GAG [1, 5]: 92%
- A, stimulating activity on the secretion of GAG ([1]; D-xylose 5 mM, tracer 14C-D-galactosamine): 105%
- GAG secreted [1, 6]: 2950 ± 262 dpm/μg protein
- A, stimulating activity on the secretion of GAG [1, 6]: 113%
- GAG secreted [1, 7]: 250 ± 28 dpm/μg protein
- A, stimulating activity on the secretion of GAG [1, 7]: 145%
- synthesis and extracellular secretion of PG and GAG by the keratinocytes of the human epidermis ([1]; irrespective of the radioactive tracer used): very strongly stimulates
- cytotoxicity [2]: non-cytotoxic
